Laboratory results: PMC8308625, “Preclinical Studies in Anti-Trypanosomatidae Drug Development” (Pharmaceuticals, 2021)
Like-named read-outs stand apart in the source and are kept apart here. Each block holds one compound with its values, some of them ahead of it.

What was measured:
T. brucei = assay: Growth inhibition of T. brucei bloodstream form trypomastigotes (resazurin); assay type: cell-based, Trypanosoma brucei brucei; settings: for EC50: read-out: EC50 ± SD T. brucei
Description: Compounds were dissolved in dimethylsulfoxide (DMSO).

T. cruzi = settings: read-out: EC50 ± SD T. cruzi, cited from earlier work
[1] = test system: L. infantum reference strain (MHOM/BR/2002/LPC-RPV); assay: Growth inhibition of L. infantum reference strain promastigotes (resazurin); settings: for Selectivity Index MΦ/Lin–Ref: EC50 mammalian cell line/EC50 L. infantum reference strain; for Selectivity Index MΦ/Reference: EC50 J774.1 macrophages versus L. infantum reference strain
L. braziliensis = settings: read-out: EC50 ± SD L. brazils, cited from earlier work
L. amazonensis = assay: Growth inhibition of L. amazonensis promastigotes (resazurin); settings: for Selectivity Index MΦ/L. amaz: EC50 mammalian cell line/EC50 L. amazonensis
[2] = test system: L. infantum veterinary isolate (MCAN_UY_2015_gPL8); assay: Growth inhibition of L. infantum veterinary isolate promastigotes (resazurin); settings: for Selectivity Index MΦ/Veterinary: EC50 J774.1 macrophages versus L. infantum veterinary isolate; for EC50: Leishmania infantum
[3] = test system: J774.1 murine macrophages; assay: Nonspecific cytotoxicity in murine macrophages (MTT); settings: Mus musculus, J774.1, read-out: EC50 ± SD MΦ
[4] = mice, 796 150 mg/kg oral, Cyclophosphamide intraperitoneal positive control
T. b. brucei = settings: ref Veale and Hoppe, 2018; read-out: EC50 T. b. brucei; cited from earlier work
[5] = Nonspecific cytotoxicity in murine macrophages (MTT); settings: mouse, J774.1 murine macrophages
[6] = set-up: method as in data provided by the DNDi program, non-published; settings: ref data provided by the DNDi program, non-published; cited from earlier work
[7] = Table 3, thiazolidene hydrazines, ref [13],[16],[19],[23],[25]
[8] = read-out: EC50 ± SD Lin–Ref, Table 3, thiazolidene hydrazines, L. infantum reference strain
[9] = Table 4, curcuminoids, ref [14]
[10] = read-out: EC50 ± SD Lin–Ref, Table 4, curcuminoids, L. infantum reference strain
[11] = Leishmania infantum, read-out: EC50 ± SD Lin–Ref
[12] = Leishmania infantum, read-out: EC50 L. infantum Reference
[13] = read-out: EC50 L. infantum Veterinary

SMILES: C=CCNC(=S)NN=CC(C)=Cc1ccco1 [Compound 909]
EC50 (T. brucei; Table 3, thiazolidene hydrazines): 19 ± 1 µM | EC50 (T. cruzi; [7]): 6 ± 1 µM | EC50 [1, 8]: 10 µM

EC50 (T. brucei; Table 4, curcuminoids): 15 ± 2 µM | EC50 [1, 10]: < 0.3 µM
SMILES: O=C1C(=CC=Cc2cccs2)CCC1=CC=Cc1cccs1 [Compound 1018]
EC50 (T. cruzi; [9]): 0.04 ± 0.01 µM | EC50 (L. braziliensis; [9]): 11 ± 3 µM

EC50 (L. amazonensis; read-out: EC50 ± SD L. amaz, Table 4, curcuminoids): 18 ± 4 µM | EC50 [1, 10]: < 0.3 µM
SMILES: O=C1C(=CC=Cc2ccco2)CCC1=CC=Cc1ccco1 [Compound 1223]
trypanosomicidal effect on T. brucei (T. brucei): no trypanosomicidal effect | EC50 (T. cruzi; [9]): 5 ± 2 µM | EC50 (L. braziliensis; [9]): 16 ± 4 µM | growth inhibitory / trypanosomicidal effect on the L. infantum canine-derived isolate [2]: no trypanosomicidal effect

EC50 (T. brucei; Table 4, curcuminoids): 16 ± 3 µM | EC50 [1, 10]: < 0.3 µM
SMILES: O=C1C(=CC=Cc2cccs2)CCCC1=CC=Cc1cccs1 [Compound 1245]
EC50 (T. cruzi; [9]): 0.6 ± 0.2 µM | EC50 (L. braziliensis; [9]): 16 ± 1 µM

SMILES: O=C(NN=CC=Cc1ccco1)c1cnn(-c2ccccc2)c1 [Compound 1366]
EC50 (T. cruzi; [7]): 12 ± 2 µM

SMILES: Cc1ccc(S(=O)(=O)NN=CC=Cc2ccco2)cc1 [Compound 1369]
EC50 (T. cruzi; [7]): 15 ± 5 µM | EC50 [1, 8]: 8 ± 2 µM

EC50 (T. brucei; Table 4, curcuminoids): 0.7 ± 0.1 µM
SMILES: O=C(C=Cc1ccsc1)C=Cc1ccsc1 [Compound 1387]
EC50 (T. cruzi; [9]): 16 ± 2 µM

EC50 (T. brucei; Table 4, curcuminoids): 16 µM
SMILES: O=C(C=CC=Cc1ccco1)C=CC=Cc1cccs1 [Compound 1414]
EC50 (T. cruzi; [9]): 12 ± 1 µM

SMILES: COc1cc(/C=C/C(=O)CC(=O)/C=C/c2ccc(O)c(OC)c2)ccc1O [Curcumin, reference compound]
EC50 (T. brucei; Trypanosoma brucei, Table 4, curcuminoids): 8 ± 1 µM | EC50 (T. cruzi; [9]): 6 ± 1 µM | EC50 (L. braziliensis; [9]): 6 ± 1 µM | EC50 [3]: 10 ± 2 µM | Selectivity Index MΦ/L. amaz (L. amazonensis): 2 | Selectivity Index MΦ/Lin–Ref [1]: 2 | EC50 [1, 11]: 5 ± 1 µM

SMILES: O=P1(N(CCCl)CCCl)NCCCO1 (centres unmarked) [Cyclophosphamide, reference compound]
Media Mn/Mouse ± SD [4]: 36 ± 2 | Number EPMn (total polychromatic micronucleated erythrocytes in the 5 assays) ([4]; 5000 EPC observed): 180

SMILES: CS(=O)(=O)c1ccc(C(=O)N(C[C@H]2CCCO2)c2nc3ccccc3s2)cc1[N+](=O)[O-] [MMV688761, N-(1,3-Benzothiazol-2-yl)-4-methylsulfonyl-3-nitro-N-[[(2R)-oxolan-2-yl]methyl]benzamide]
EC50 (T. b. brucei): 11 µM | EC50 at 48 h [5]: > 50 µM | Selectivity Index MΦ/Reference [1]: >10 | EC50 [1, 12]: 4.9 ± 0.1 µM | Selectivity Index MΦ/Veterinary [2]: >13 | EC50 [2, 13]: 3.9 ± 0.3 µM

SMILES: CNc1nnc(Sc2cnn(-c3ccccc3)c(=O)c2Cl)s1 [MMV688763, 4-Chloro-5-{[5-(methylamino)-1,3,4-thiadiazol-2-yl]sulfanyl}-2-phenyl-2,3-dihydropyridazin-3-one]
pharmacokinetics [6]: pharmacokinetic problems | EC50 at 48 h [5]: > 50 µM | Selectivity Index MΦ/Reference [1]: >24 | EC50 [1, 12]: 2.1 ± 0.2 µM | Selectivity Index MΦ/Veterinary [2]: >56 | EC50 [2, 13]: 0.9 ± 0.1 µM

EC50 [1, 11]: 6 ± 1 µM | EC50 ([2]; read-out: EC50 ± SD Lin–Vet): 10 ± 2 µM
SMILES: CC1CS(=O)(=O)CCN1/N=C/c1ccc([N+](=O)[O-])o1 (centres unmarked) [Nifurtimox, reference compound]
EC50 (T. cruzi; [7]): 7 ± 2 µM | EC50 (L. braziliensis; [7]): 6 ± 2 µM | EC50 [3]: 200 ± 9 µM | Selectivity Index MΦ/L. amaz (L. amazonensis): 33 | Selectivity Index MΦ/Lin–Ref [1]: 33 | Selectivity Index MΦ/Lin–Vet ([2]; EC50 mammalian cell line/EC50 L. infantum veterinary isolate): 20
